In the supplement of paper PMC10307832:

What was measured:
Experiment in all cases: relative viability (nuclei count vs DMSO), 5 days (fraction); higher = more cells survive
Tozasertib + Pemetrexed = compound: Cc1cc(Nc2cc(N3CCN(C)CC3)nc(Sc3ccc(NC(=O)C4CC4)cc3)n2)n[nH]1 [Tozasertib] + Nc1nc2[nH]cc(CCc3ccc(C(=O)N[C@@H](CCC(=O)O)C(=O)O)cc3)c2c(=O)[nH]1 [Pemetrexed] (partner 0.2 µM)
Outline: (§1)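 Medians of duplicate plates are given as relative viability. That measure is the nuclei count in treated wells divided by the count in vehicle wells. Counts were taken on 4× images of lung cancer cell lines in 1536-well plates, 5 days after pin-tool dosing the day after seeding with one drug alone or a fixed anchor-drug dose plus five library-drug doses (not always all listed) in √10 steps.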

Tozasertib + Palbociclib = compound: Cc1cc(Nc2cc(N3CCN(C)CC3)nc(Sc3ccc(NC(=O)C4CC4)cc3)n2)n[nH]1 [Tozasertib] + CC(=O)c1c(C)c2cnc(Nc3ccc(N4CCNCC4)cn3)nc2n(C2CCCC2)c1=O [Palbociclib] (partner 0.5 µM)
Outline: as §1

Tozasertib + Dasatinib = compound: Cc1cc(Nc2cc(N3CCN(C)CC3)nc(Sc3ccc(NC(=O)C4CC4)cc3)n2)n[nH]1 [Tozasertib] + Cc1nc(Nc2ncc(C(=O)Nc3c(C)cccc3Cl)s2)cc(N2CCN(CCO)CC2)n1 [Dasatinib] (partner 0.075 µM)
Outline: as §1

Tozasertib + Phenformin = compound: Cc1cc(Nc2cc(N3CCN(C)CC3)nc(Sc3ccc(NC(=O)C4CC4)cc3)n2)n[nH]1 [Tozasertib] + N=C(N)NC(=N)NCCc1ccccc1 [Phenformin] (partner 250 µM)
Outline: as §1

Tozasertib + Trametinib = compound: Cc1cc(Nc2cc(N3CCN(C)CC3)nc(Sc3ccc(NC(=O)C4CC4)cc3)n2)n[nH]1 [Tozasertib] + CC(=O)Nc1cccc(-n2c(=O)n(C3CC3)c(=O)c3c(Nc4ccc(I)cc4F)n(C)c(=O)c(C)c32)c1 [Trametinib] (partner 0.02 µM)
Outline: as §1

Row | Cell Line | relative viability (Tozasertib + Pemetrexed; first compound 0.004 µM) | relative viability (Tozasertib + Pemetrexed; first compound 0.01265 µM) | relative viability (Tozasertib + Pemetrexed; first compound 0.04 µM) | relative viability (Tozasertib + Pemetrexed; first compound 0.1265 µM) | relative viability (Tozasertib + Palbociclib; first compound 0.004 µM) | relative viability (Tozasertib + Palbociclib; first compound 0.01265 µM) | relative viability (Tozasertib + Palbociclib; first compound 0.04 µM) | relative viability (Tozasertib + Palbociclib; first compound 0.1265 µM) | relative viability (Tozasertib + Dasatinib; first compound 0.004 µM) | relative viability (Tozasertib + Dasatinib; first compound 0.01265 µM) | relative viability (Tozasertib + Dasatinib; first compound 0.04 µM) | relative viability (Tozasertib + Dasatinib; first compound 0.1265 µM) | relative viability (Tozasertib + Phenformin; first compound 0.004 µM) | relative viability (Tozasertib + Phenformin; first compound 0.04 µM) | relative viability (Tozasertib + Phenformin; first compound 0.1265 µM) | relative viability (Tozasertib + Trametinib; first compound 0.004 µM) | relative viability (Tozasertib + Trametinib; first compound 0.01265 µM) | relative viability (Tozasertib + Trametinib; first compound 0.04 µM) | relative viability (Tozasertib + Trametinib; first compound 0.1265 µM) | relative viability (Tozasertib + Phenformin; first compound 0.01265 µM)
1 | NCI-H1792 | 0.928 | 0.616 | 0.895 | 0.515 | 0.731 | 0.594 | 0.758 | 0.61 | 0.7 | 0.594 | 0.888 | 0.694 | 0.325 | 0.423 | 0.209 | 0.481 | 0.412 | 0.754 | 0.35 | 
2 | NCI-H1793 | 1.02 |  | 1.16 | 0.458 | 0.307 | 0.312 | 0.367 | 0.295 | 0.387 | 0.36 | 0.377 | 0.285 | 0.33 | 0.414 | 0.458 | 0.442 | 0.385 | 0.415 | 0.328 | 0.427
3 | NCI-H1944 | 0.577 | 0.579 | 0.588 | 0.537 | 0.311 | 0.308 | 0.332 | 0.273 | 0.217 | 0.217 | 0.206 | 0.147 | 0.203 | 0.211 | 0.167 | 0.396 | 0.392 | 0.446 | 0.306 | 0.211
4 | NCI-H838 | 0.263 | 0.257 | 0.249 | 0.232 | 0.238 | 0.213 | 0.25 | 0.171 | 0.304 | 0.307 | 0.225 | 0.256 | 0.702 | 0.606 | 0.177 | 0.528 | 0.453 | 0.657 | 0.246 | 0.514
5 | LCLC-97TM1 | 0.191 | 0.157 | 0.15 | 0.18 | 0.232 | 0.223 | 0.222 | 0.21 | 0.809 | 0.695 | 0.948 | 0.783 | 0.438 | 0.459 | 0.407 | 0.211 | 0.22 | 0.239 | 0.17 | 0.437
6 | EMC-BAC-2 | 0.464 | 0.407 | 0.467 | 0.428 | 0.542 | 0.501 | 0.514 | 0.433 | 0.314 | 0.321 | 0.342 | 0.259 | 0.486 | 0.518 | 0.357 | 0.873 | 0.826 | 0.928 |  | 0.513
7 | HOP-62 | 0.396 | 0.299 | 0.32 | 0.362 | 0.53 | 0.483 | 0.556 | 0.439 | 0.676 | 0.615 | 0.672 | 0.668 | 0.732 | 0.616 | 0.617 | 0.356 | 0.401 | 0.401 | 0.372 | 0.578
8 | LK-2 | 0.307 | 0.354 | 0.287 | 0.134 | 0.736 | 0.782 | 0.887 | 0.378 | 0.262 | 0.39 | 0.285 | 0.23 | 0.37 | 0.412 | 0.212 | 0.859 | 0.646 | 0.739 | 0.353 | 0.493
9 | NCI-H322M | 0.575 | 0.585 | 0.629 | 0.478 |  | 0.515 | 0.466 | 0.486 | 0.263 | 0.263 | 0.257 | 0.224 | 0.798 | 0.799 | 0.481 | 0.498 |  | 0.573 | 0.458 | 
10 | HCC-366 | 0.173 | 0.145 | 0.184 | 0.136 | 0.4 | 0.391 | 0.502 | 0.227 | 0.612 | 0.682 | 0.677 | 0.629 | 0.629 | 0.661 | 0.651 | 0.304 | 0.323 | 0.385 | 0.15 | 0.56
11 | NCI-H460 | 0.0596 | 0.0601 | 0.0605 | 0.0623 | 0.172 | 0.18 | 0.196 | 0.115 | 0.546 | 0.546 | 0.62 | 0.318 | 0.529 | 0.578 | 0.159 | 0.132 | 0.129 | 0.113 | 0.0704 | 0.463
12 | HCC-827 | 0.254 | 0.239 | 0.293 | 0.262 | 0.511 | 0.516 | 0.603 | 0.493 | 0.299 | 0.282 | 0.352 | 0.345 | 0.384 | 0.484 | 0.406 | 0.493 | 0.481 | 0.663 | 0.512 | 0.403
13 | HARA | 0.24 | 0.27 | 0.274 | 0.203 | 0.333 | 0.248 | 0.262 | 0.207 | 0.286 | 0.281 | 0.336 | 0.303 | 0.365 | 0.493 | 0.444 | 0.63 | 0.565 | 0.608 | 0.283 | 0.44
14 | NCI-H441 | 0.264 | 0.235 | 0.251 | 0.237 | 0.222 | 0.186 | 0.213 | 0.203 | 0.655 | 0.643 |  | 0.474 | 0.955 | 0.937 | 0.768 | 0.575 | 0.393 | 0.428 | 0.318 | 0.852
15 | PC-14 |  | 0.145 | 0.143 | 0.125 |  | 0.576 | 0.526 | 0.474 |  | 0.292 | 0.254 | 0.132 | 0.248 | 0.556 | 0.257 |  | 0.767 | 0.994 | 0.595 | 0.359
16 | NCI-H358 | 0.179 | 0.164 | 0.181 | 0.145 | 0.14 | 0.135 | 0.168 | 0.0747 | 0.154 | 0.152 | 0.187 | 0.121 | 0.353 | 0.354 | 0.0988 | 0.137 | 0.0985 | 0.132 | 0.0814 | 0.295
17 | NCI-H1755 | 0.376 | 0.42 | 0.401 | 0.4 | 0.456 | 0.461 | 0.442 | 0.442 | 0.44 | 0.486 | 0.474 | 0.312 | 0.593 | 0.592 | 0.483 | 0.733 | 0.696 | 0.849 | 0.742 | 0.597
18 | NCI-H2347 | 0.44 | 0.461 | 0.45 | 0.432 | 0.384 | 0.457 | 0.472 | 0.413 | 0.344 |  | 0.262 | 0.281 | 0.45 | 0.433 | 0.377 | 0.279 | 0.299 | 0.317 | 0.256 | 
19 | NCI-H647 | 0.186 | 0.183 | 0.169 | 0.125 | 0.457 | 0.398 | 0.425 | 0.299 | 0.204 | 0.185 | 0.181 | 0.0838 | 0.687 | 0.602 | 0.177 | 0.459 | 0.374 | 0.524 | 0.32 | 0.526
20 | NCI-H520 | 0.743 | 0.789 | 0.633 | 0.413 | 0.231 | 0.228 | 0.231 | 0.173 | 0.265 | 0.203 | 0.209 | 0.138 | 0.546 | 0.662 | 0.234 | 0.673 | 0.645 | 0.765 | 0.243 | 0.57
21 | HCC-78 | 0.938 | 0.901 | 0.919 | 0.881 | 0.404 | 0.466 | 0.451 | 0.484 | 0.541 | 0.316 | 0.469 | 0.322 | 0.957 | 0.699 | 0.525 | 0.821 | 0.478 | 0.824 | 0.632 | 0.608
22 | NCI-H1355 | 1.12 | 0.974 | 1.03 | 0.948 | 0.362 | 0.424 | 0.457 | 0.391 | 0.691 | 0.706 | 0.843 | 0.49 | 0.469 | 0.459 | 0.367 | 0.43 | 0.436 | 0.465 | 0.402 | 0.424
23 | NCI-H2087 | 0.72 | 0.698 | 0.671 | 0.688 | 0.248 | 0.204 | 0.231 | 0.128 | 0.82 | 0.858 | 1.12 | 0.63 | 0.487 | 0.539 | 0.344 | 0.185 | 0.187 | 0.218 | 0.126 | 0.443
24 | NCI-H3122 | 0.193 | 0.214 | 0.191 | 0.218 | 0.157 | 0.159 | 0.211 | 0.201 | 0.71 | 0.802 | 0.913 | 0.886 | 0.38 | 0.366 | 0.312 | 0.198 | 0.244 | 0.239 | 0.23 | 0.346
25 | CAL-12T | 1.3 | 1.14 | 1.25 | 1.01 | 0.713 | 0.41 | 0.459 | 0.242 | 0.434 | 0.332 | 0.404 | 0.151 | 0.669 | 0.529 | 0.272 | 0.439 | 0.27 | 0.445 | 0.219 | 0.499
26 | LOU-NH91 | 0.421 | 0.409 | 0.372 | 0.39 | 0.526 | 0.536 | 0.512 | 0.529 |  | 0.519 | 0.573 | 0.499 |  | 0.797 | 0.559 | 0.692 | 0.811 | 0.838 | 0.793 | 0.672
27 | NCI-H1666 | 0.843 | 0.921 | 0.846 | 0.816 | 0.644 | 0.62 | 0.663 | 0.612 | 0.793 | 0.71 | 0.803 | 0.554 | 0.605 | 0.562 | 0.464 | 0.79 | 0.86 | 0.863 | 0.727 | 0.558
